Structures can show the parent of a compound that is named as a salt. Where two headings read alike, the source gives them in different places.
Tests used:
[1] = tested on: Noradrenaline-Precontracted Aorta; experiment: Endothelium-dependent smooth muscle relaxation of noradrenaline-precontracted rabbit aorta rings in an organ bath; settings: Oryctolagus cuniculus, noradrenaline 3 × 10^-7 mol/L
Method: Rabbit aorta rings are fixed in an organ bath filled with physiological salt solution (Krebs-Henseleit) between L-shaped wires. The solution is gassed with carbogen. Contractions are initiated by 3×10^-7 noradrenaline. When the tension has reached a stable plateau, compounds of the instant invention are added. The effect of the compounds first is tested on organ preparation with functioning endothelium. In an additional experiment in order to test whether the relaxation is endothelium-dependent the compounds are tested with aorta rings with damaged endothelium. For an endothelium-dependent relaxation, effected by the endothelium-derived relaxating factor (EDRF), the following characteristics are required: absence of the effect in preparations with damaged endothelium, no inhibition of the relaxation by indomethazine and inhibition of the relaxation by NDGA (nordihydro-guaiaretic acid), methylene blue and gossypol. These criteria are completely met by the compounds listed in Table II, and one can conclude, that the compounds of the instant invention act in an unexpected manner by the release of EDRF, and thereby relax vascular smooth muscle.

[2] = biological target: calcium- and phospholipid-dependent protein kinase (PKC); experiment: Inhibition of the activity of protein kinase C (incorporation of P^32-labelled phosphate into histone H-1); assay type: biochemical; settings: PKC enriched from rat brain; histone H-1 substrate; 5 min, 30° C.; pH 7.5
Text: For the clarification of the inhibiting influence of compounds of formula I according to the present invention on the calcium- and phospholipid-dependent protein kinase (PKC), this enzyme activity was enriched from rat brain. Using the purification steps described in the literature (J. Biol. Chem., 260, 15718-15722/1985), in the case of a purification consisting of two steps, there was utilized the property of the enzyme to bind to cell membranes in the presence of calcium and to be dissolved off again by calcium chelators (EGTA). In the first enrichment step, there took place the binding of the PKC to membranes of the rat brain and in the second step on so-called inside-out vesicles or erythrocytes. After dissolving off from the erythrocyte membranes and rebuffering, the PKC preparation was present in 10 mM HEPES, 1 mM DTT, 0.1% PEG 20000, pH 7.5. Under these conditions, it could be stored at -70° C. for several months without loss of activity.
The activity of the enzyme was determined via the incorporation of P^32 -labelled phosphate into the protein histone H-1 (Sigma Type III) which can be phosphorylated by PKC.
The test thereby contains the following components: 50 mM HEPES-NaOH (pH 7.5), 5 mM magnesium chloride, 1 mM DTT, 4 μm. free calcium ions, 10 μMaTP, 1 μg phosphatidylserine, 0.2 μg 1,2-diolein, as well as 40 μg histone H-1 and optionally the test substance.
The batch is preincubated for 4 minutes at 30° C. and the reaction then started by the addition of 5 nM PKC. After incubating for 5 minutes at 30° C., the reaction is stopped with 10% TCA and the samples then filtered off. The phosphate incorporation is determined by Cerenkov counting in a scintillation counter. The kinase activity measured in the absence of the test substance was, in each case, taken as being 100% and the inhibiting action of the compounds of formula I referred thereto as percentages.

[3] = damaged endothelium, read-out: Relaxation of Noradrenaline-Precontracted Aorta, EC50, Damaged Endothelium
[4] = functioning endothelium, read-out: Relaxation of Noradrenaline-Precontracted Aorta, EC50, Functioning Endothelium

SMILES | EC50 [1, 3] [nM] | EC50 [1, 4] [nM] | IC50 [2] [nM]
CC(=O)OCC[N+](C)(C)C [Acetylcholine, reference compound] | > 100000 | 30 | 
CCCCCCCCCCCCCCCCCCOc1cn(Cc2ccccc2)c(CNCCCN(C)C)cc1=O [Example 54, 1-Benzyl-2-[N-(3-dimethylaminopropyl)-aminomethyl]-5-octadecyloxy-4(1H)-pyridone dioxalate] | > 100000 | 15000 | 1400
CCCCCCCCCCCCCCCCCCOc1cn(CC2CCCCC2)c(CNCCCN(C)C)cc1=O [Example 68, 1-Cyclohexylmethyl-2-[N-(3-dimethylaminopropyl)aminomethyl]-5-octadecyloxy-4(1H)-pyridone difumarate] |  |  | 1900
CCCCCCCCCCCCCCCCCCOc1cn(Cc2ccc(Cl)cc2)c(CNCCCN(C)C)cc1=O [Example 69, 1-(4-Chlorobenzyl)-2-[N-(3-dimethylamino-propyl)aminomethyl]-5-octadecyloxy-4(1H)-pyridone difumarate 1.25 hydrate] | > 100000 | 30000 | 1500
CCCCCCCCCCCCCCCCCCOc1cn(-c2ccccc2)c(CNCCCN(C)C)cc1=O [Example 70, 2-[N-(3-Dimethylaminopropyl)aminomethyl]-5-octadecyloxy-1-phenyl-4(1H)-pyridone] |  |  | 2200
CCCCCCCCCCCCCCCCCCOc1cn(Cc2ccccc2)c(CNCCCN(C)Cc2ccccc2)cc1=O [Example 71, 1-Benzyl-2-[N-(3-N-benzyl-N-methylaminopropyl)aminomethyl]-5-octadecyloxy-4(1H)-pyridone difumarate] | > 100000 | 3000 | 1800
CCCCCCCCCCCCCCCCCCOc1cn(Cc2ccc(OC)cc2)c(CNCCCN(C)C)cc1=O [Example 72, 2-[N-(3-Dimethylaminopropyl)aminomethyl]-1-(4-methoxybenzyl)-5-octadecyloxy-4(1H)-pyridone trihydrochloride monohydrate] |  |  | 3600
CCCCCCCCCCCCCCCCCCOc1cn(Cc2ccccc2)c(CN(C)C)cc1=O [Example 73, 1-Benzyl-2-dimethylaminomethyl-5-octadecyloxy-4(1H)-pyridone oxalate hemihydrate] |  |  | 4400
CCCCCCCCCCCCCCCCCCOc1cn(Cc2ccccc2OC)c(CNCCCN(C)C)cc1=O [Example 74, 2-[N-(3-Dimethylaminopropyl)aminomethyl]-1-(2-methoxybenzyl)-5-octadecyloxy-4(1H)-pyridone difumarate] |  |  | 2100
CCCCCCCCCCCCCCCCCCOc1cn(Cc2ccccc2)c(CN(C)Cc2ccccc2)cc1=O [Example 75, 1-Benzyl-2-(N-benzyl-N-methylaminomethyl)-5-octadecyloxy-4(1H)-pyridone] |  |  | 9500
CCCCCCCCCCCCCCCCCCOc1cn(Cc2ccc(C)cc2)c(CNCCCN(C)C)cc1=O [Example 76, 2-[N-(3-Dimethylaminopropyl)aminomethyl]-1-(4-methylbenzyl)-5-octadecyloxy-4(1H)-pyridone trihydrochloride hemihydrate] |  |  | 1900
CCCCCCCCCCCCCCCCCCOc1cn(Cc2ccccc2)c(CNCCCCN)cc1=O [Example 77, 2-[N-(4-Aminobutyl)aminomethyl]-1-benzyl-5-octadecyloxy-4(1H)-pyridone trihydrochloride] |  |  | 2300
CCCCCCCC/C=C\CCCCCCCCOc1cn(Cc2ccccc2)c(CNCCCN(C)C)cc1=O [Example 78] |  |  | 4600
CCCCCCCCCCCCCCCCCCOc1cn(-c2ccc(OCc3ccccc3)cc2)c(CNCCCN(C)C)cc1=O [Example 79, 1-(4-Benzyloxyphenyl)-2-[N-(3-dimethylaminopropyl)aminomethyl]-5-octadecyloxy-4(1H)-pyridone] |  |  | 2200
CCCCCCCCCCCCCCCCCCOc1cn(-c2ccc(OCc3ccccc3)cc2)c(CNCCCN(C)C)cc1=O [Example 80, 1-(4-Benzyloxyphenyl)-2-[N-(3-dimethylaminopropyl)aminomethyl]-5-octadecyloxy-4(1H)-pyridone·difumarate·2,5 H2 O] |  |  | 2600
CCCCCCCCCCCCCCCCCCOc1cn(Cc2ccc(O)cc2)c(CNCCCN(C)C)cc1=O [Example 84] |  |  | 3400
CCCCCCCCCCCCCCCCCCOc1cn(-c2ccc(O)cc2)c(CNCCCN(C)C)cc1=O [Example 85, 2-[N-(3-Dimethylaminopropyl)aminomethyl]-1-(4-hydroxyphenyl)-5-octadecyloxy-4(1H)-pyridone·trihydrochloride·0,5 H2 O] |  |  | 5800
CCCCCCCCCCCCCCCCCCOc1cn(Cc2ccccc2)c(CN2CCN(Cc3ccccc3)CC2)cc1=O [Example 88, 1-[(1-Benzyl-5-octadecyloxy-4(1H)-pyridon-2-yl)methyl]-4-benzylpiperazine] | > 100000 | 3400 | 3000
CCCCCCCCCCCCCCCCCCOc1cn(Cc2ccccc2)c(CN(C)CCCN(C)C)cc1=O [Example 89, 1-Benzyl-2-[N-(3-dimethylaminopropyl)-N-methylaminomethyl]-5-octadecyloxy-4(1H)-pyridone trihydrochloride] |  |  | 1800
CCCCCCCCCCCCCCCCCCOc1cn(Cc2ccccc2)c(CN2CCN(Cc3ccccc3)CC2)cc1=O [Example 93, 1-[(1-Benzyl-5-octadecyloxy-4(1H)-pyridone-2-yl)methyl]-4-benzylpiperazine·dioxlate·1/2 H2 O] |  |  | 5500
CCCCCCCCCCCCCCCCCCOc1cn(Cc2ccccc2)c(CN2CCN(CCc3ccccc3)CC2)cc1=O [Example 94, 1-[(1-Benzyl-5-octadecyloxy-4(1H)-pyridone-2-yl)methyl]-4-(2-phenylethyl)piperazine·trihydrochloride·1/2 H2 O] |  |  | 2400
CCCCCCCCCCOc1cn(Cc2ccccc2)c(CN2CCN(CCc3ccccc3)CC2)cc1=O [Example 95, 1-[(1-Benzyl-5-decyloxy-4(1H)-pyridone-2-yl)-methyl]4-(2-phenylethyl)piperazine·dihydrochloride] |  |  | 4300
CCCCCCCCCCCCCCCCCCOc1cn(Cc2ccccc2)c(COCCCN(C)C)cc1=O [Example 103, 1-Benzyl-2-(3-dimethylaminopropoxymethyl)-5-octadecyloxy-4(1H)-pyridone dihydrochloride] |  |  | 4000
CCCCCCCCCCCCCCCCCCOc1cn(CCC)c(COCCCN(C)C)cc1=O [Example 105, 2-(3-Dimethylaminopropoxymethyl)-5-octadecyloxy-1-propyl-4(1H)-pyridone dihydrochloride 3/4 hydrate] |  |  | 2000
CCCCCCCCCCCCCCCCCCOc1cn(Cc2ccc(C)cc2)c(COCCCN(C)C)cc1=O [Example 106, 2-(3-Dimethylaminopropoxymethyl)-1-(4-methylbenzyl)-5-octadecyloxy-4(1H)-pyridone dihydrochloride sesquihydrate] |  |  | 2400
CCCCCCCCCCCCCCCCCCOc1cn(Cc2ccc(OC)cc2)c(COCCCN(C)C)cc1=O [Example 107, 2-(3-Dimethylaminopropoxymethyl)-1-(4-methoxybenzyl)-5-octadecyloxy-4(1H)-pyridone dihydrochloride 1/4 hydrate] |  |  | 2900
CCCCCCCCCCCCCCCCCCOc1cn(CC2CCCCC2)c(COCCCN(C)C)cc1=O [Example 108, 1-Cyclohexylmethyl-2-(3-dimethylaminopropoxymethyl)-5-octadecyloxy-4(1H)-pyridone oxalate] |  |  | 2900
CCCCCCCCCCCCCCCCCCOc1cn(Cc2ccc(Cl)cc2)c(COCCCN(C)C)cc1=O [Example 109, 1-(4-Chlorobenzyl)-2-(3-dimethylaminopropoxymethyl)-5-octadecyloxy-4(1H)-pyridone dihydrochloride 2.5 hydrate] |  |  | 2600
CCCCCCCCCCCCCCCCCCOc1cn(Cc2ccccc2)c(CCC(=O)OC)cc1=O [Example 114, Methyl 3-[1-benzyl-5-octadecyloxy-4(1H)-pyridon-2-yl]-propionate] |  |  | 9000
CCCCCCCCCCCCCCCCCCOc1cn(Cc2ccccc2)c(CCC(N)=O)cc1=O [Example 116, 3-[1-benzyl-5-octadecyloxy-4(1H)-pyridon-2-yl]-propionic acid amide] |  |  | 9000

Source: patent publication US5185352A, “Alkoxy-4(1H)-pyridone derivatives, processes for the preparation thereof and pharmaceutical compositions containing them” (Goedecke Aktiengesellschaft, priority 1988, dated 1993)
